The experiment concerns the target AMPK. Briefly: AMPK activation, enzyme-linked immunosorbent assay. The experiment is classed as biochemical. Conditions: Table 14, compounds of Table 7. Summed up:
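Read-out: ELISA, used to detect compound-driven activation of AMPK.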

Molecules are shown by their SMILES. Where only a bound is given, the exact number is not on record here.

For orientation: EC50 means the concentration at which the effect is half-maximal. Read a low EC50 as higher potency in that assay. `CS(=O)(=O)c1ccc(OC2CCN(C(=O)c3ccc(C(=O)Nc4ccc(Oc5ccc(C#N)cc5)nc4)cn3)CC2)cc1` [Compound 7-121, N-(6-(4-cyanophenoxy)pyridin-3-yl)-6-(4-(4-(methylsulfonyl)phenoxy)piperidine-1-carbonyl) nicotinamide] yielded an EC50 of less than 1000 nM.

For the origin of these results see US9409884B2 (Rigel Pharmaceuticals, Inc., priority 2012, dated 2016).
